Source: patent US20060008466A1, “Methods for treating and preventing microbial infections” (University of Saskatchewan, priority 2004, published 2006)
Bridge positions count the residues as written; N and C are the ends. Ends that are not written are not given here.

How the values were obtained:
B. pertussis [1] = experiment: In vivo antimicrobial activity: pBD-1 delivered into lungs of newborn piglets, challenge with B. pertussis
Description: Pregnant Landrace sows were purchased from the Saskatoon Prairie Swine Centre, University of Saskatchewan. Sows were induced to farrow by intramuscular (i.m.) injection of prostaglandin (Planate) (Schering, Quebec, Canada) at day 113 of gestation. Piglets were born at day 114-115 of gestation. Nursing piglets were kept within the same room, but in separated pens and monitored very closely. The piglets were challenged at 3-5 days of age. All experiments were conducted in accordance with the ethical guidelines of the University of Saskatchewan and the Canadian Council for Animal Care (CCAC).
Newborn piglets were anaesthetized with isoflurane and intubated using a laryngoscope. Infection was initiated by delivering 5×10^9 CFU of B. pertussis strain Tohama I intrapulmonarily (craniodorsal of the bifurcation) through a MICRO-RENATHANE tube (0.95) (Braintree Scientific Inc., Braintree, Mass., USA), which was inserted through an endotracheal tube (3 mm) (Jorgensen Laboratories Inc. Loveland, Colo., USA). The bottom-end of the MICRO-RENATHANE tube was sealed and minute holes were made for the equal distribution of bacteria. Piglets were monitored twice daily for clinical symptoms including fever and respiratory symptoms such as nasal discharge, non paroxysmal cough and breathing difficulties. Piglets were euthanized by i.p. injection of 5 ml of Euthanyl (Sodium barbiturate; Bimeda-MTC, Ont, Canada) at different time points over a 10 day period post challenge. The thoracic and the abdominal cavities and the lungs were examined for any lesions and abnormalities such as pleuritis or local collections of blood and fluids in the thorax were noted.
The antimicrobial activity of pBD-1 was tested in vivo by delivery of pBD-1 into the lungs of newborn piglets prior to challenge with B. pertussis. Pregnant sows, Landrace, were purchased from Saskatoon Prairie Swine Centre, University of Saskatchewan. Sows were farrowed out by i.m. injection of prostaglandin (Planate). Three to four day old colostrum-fed piglets were anaesthetized with isoflurane. 500 μg of pBD-1 dissolved in 1.5 ml PBS was delivered to the lung using a tube placed through the trachea in front of the bifurcation which marks the beginning of the lung (craniodorsal of bifurcation). A volume of 1.5 ml was delivered. Following the delivery of the pBD-1, all piglets were challenged with 5×10^9 cfu bacteria (n=10) by the same procedure. Control animals received saline instead of pBD-1 and were subsequently challenged. Piglets were kept with their sows within the same room in separated pens. Piglets were monitored twice a day.
In addition, the number of bacteria in BAL fluid and lung lesions was examined over a 10 day period. The BAL fluid was obtained by filling the lungs with 15 ml of SS-medium and withdrawing as much fluid as possible. To quantify the presence of B. pertussis in the BAL, fluid samples were centrifuged to remove debris and host cells; supernatant and dilutions thereof were plated onto BG plates and incubated at 37° C. for up to a week. To determine the number of bacteria within tissues, lesions were excised, weighed, homogenized and plated onto BG agar plates.

B. bronchiseptica [2] = experiment: In vitro bactericidal activity against B. bronchiseptica, plate counts; assay type: cell-based
Description: (§1) E. coli, Actinobacillus pleuropneumoniae and B. bronchiseptica were grown on agar plates using routine procedures. The bacteria were washed off the plates, washed in saline and subsequently resuspended in media. They were co-incubated with pBD-1 in varying doses and incubated for various time periods (6-48 hours). The bacteria were quantified by plating the suspension onto agar plates.
(§2) Bactericidal activity of bronchoalveolar lavage (BAL) fluid obtained from non-infected piglets was analyzed against B. pertussis in vitro. Non-infected piglets, either 4-5 weeks old or newborn piglets (6 hours old, colostrum-deprived or colostrum-fed), were euthanized and BALs were collected in Stainer-Scholte (SS) medium. The BAL fluid was obtained by filling the lungs with 10 ml of SS medium and withdrawing as much fluid as possible (this procedure was performed once). Alveolar macrophages and other cells were removed by centrifugation at 500 g for 10 minutes. BALs (290 μl) were co-cultured in microtiter plates with 10 μl bacterial suspension containing 5-7×10^6 CFU of B. pertussis at 37° C. Supernatants were plated onto BG agar plates at different time points to evaluate the number of viable bacteria. The sensitivity of B. pertussis to synthetically derived pBD-1 and human beta-defensin 2 (hBD-2) was assayed by co-culturing appropriate concentrations of pBD-1 or hBD-2 in SS-medium (280 μl) with 5-7×10^6 CFU (10 μl) bacteria. Plates were incubated at 37° C. for 2, 6, 18 and 24 hours. The same procedures were followed to investigate the inhibitory effects of BAL, pBD-1 and hBD-2 against B. bronchiseptica in vitro.

B. pertussis [3] = experiment: Transmission electron microscopy of B. pertussis after pBD-1 treatment; assay type: cell-based; settings: 20 and 40 μg/ml; 60 minutes at 37° C.
Description: (§3) To determine the potential mechanism of action of pBD-1, transmission electron microscopy (TEM) was employed to evaluate the effect of pBD-1 on the bacterial membrane of B. pertussis and B. bronchiseptica following treatment with pBD-1. pBD-1 was added at a final concentration of 20 μg/ml or 40 μg/ml to 5-9×10^9 CFU bacteria and incubated for 60 minutes at 37° C. Bacteria were washed with PBS, fixed with an equal volume of 5% glutaraldehyde in 0.1 M sodium cacodylate buffer (pH 7.4), and centrifuged at 5000 g for 5 minutes. Cells were resuspended in 1% agarose and pelleted. The bacterial pellets were stored in the fixative (2.5% glutaraldehyde) at 4° C. for 2 hours. The samples were dehydrated and en bloc stained with uranyl acetate in a series of ethanol concentrations and then embedded in Epon/Araldite. Thin sections were cut using an ultramicrotome with a diamond knife, mounted on specimens grids and stained with uranyl acetate and lead citrate before being examined on a transmission electron microscope (Philips 410LS) operating at 80 kV and at magnification ranging from 24000-55000×.

Streptococcus suis = experiment: In vitro inhibitory activity against Streptococcus suis; assay type: cell-based; settings: FIG. 6B
Description: (§4) The inhibitory activity of pBD-1 on the Gram-negative bacteria Actinobacillus pleuropneumoniae, Bordetella bronchiseptica, Streptococcus suis and E. coli was also examined. FIGS. 6A-6B show the results on A. pleuropneumoniae, S. suis, B. bronchiseptica and B. pertussis. The results for E. coli are not shown.

B. bronchiseptica [4] = experiment: Transmission electron microscopy of B. bronchiseptica after pBD-1 treatment; assay type: cell-based; settings: 80 μg/ml
Description: as §3, with “bronchiseptica following treatment with pBD-1. pBD-1 was added at a final concentration of 20 μg/ml or 40 μg/ml to 5-9×10^9 CFU bacteria” left out

B. pertussis [5] = experiment: In vitro bactericidal activity against B. pertussis in SS medium, viable counts (CFU) on BG agar; assay type: cell-based, B. pertussis strain Tohama I
Description: The B. pertussis strain used in these experiments was Tohama I. Bacterial suspensions were stored at −70° C. in casamino acid plus 10% glycerol. Organisms were initially grown on the surface of Bordet-Gengou (BG) agar containing 15% (vol/vol) defibrinated sheep blood and 40 μg/ml of Cephalexin at 37° C. for 48 hrs. The bacterial cells were harvested and washed in phosphate-buffered saline (PBS, pH 7.2) by centrifugation at 2500 g for 10 min. The pellets were resuspended in saline and adjusted to a specified bacterial titer by determining the optical density at 600 nm using a spectrophotometer; The corresponding viable counts of these suspensions were measured by plating out serial dilutions of the bacterial suspension onto BG-agar and incubating at 37° C. for 4-5 days.
To examine the bactericidal effect of defensin against B. pertussis, 10 μl of bacterial suspension (OD600 nm of 0.2) was added to 200 μl of Stainer and Scholte (SS) broth medium with or without chemically synthesized defensin at different concentrations in a 96 well plate and incubated at 37° C. for up to 30 hours. At the end of each incubation period (6 hrs, 18 hrs, 24 hrs, 30 hrs), the culture medium was immediately removed for quantification of viable bacteria. The culture medium with or without defensin was plated onto BG agar plates and incubated at 37° C. for up to 4 days after which time the number of colonies were counted. The number of surviving bacteria was estimated by colony-forming units (CFU). The results were confirmed by three independent experiments compared with results from control bacterial culture (no peptide).
20, 40 and 80 μg of pBD-1 was added to bacterial culture and incubated at 37° C. Aliquots were removed at 6, 18 and 30 hr post incubation and incubated for 4 days on BG plates at 37° C.
as §2

Listeria monocytogenes = settings: 40 μg/ml; cited from earlier work
Candida albicans = settings: 40 μg/ml; cited from earlier work
Salmonella typhimurium = settings: 40 μg/ml; cited from earlier work
Escherchia coli = settings: 40 μg/ml; cited from earlier work
E. coli = experiment: In vitro inhibitory activity against E. coli; assay type: cell-based; settings: results not shown
Description: as §1, §4

[6] = system: Actinobacillus pleuropneumoniae; experiment: In vitro inhibitory activity against Actinobacillus pleuropneumoniae; assay type: cell-based; settings: FIG. 6A
Description: as §1, §4

B. pertussis isolates = settings: cited from earlier work

H-KNIGNSVSCLRNKGVCMPGKCAPKMKQIGTCGMPQVKCCKRK-NH2 (disulfide 9-38, 16-31, 21-39) [pBD-1]
protection of infected piglets (B. pertussis [1]; 500 μg into the lung at time of challenge, 5×10^9 CFU B. pertussis): complete protection
clinical symptoms (fever, respiratory symptoms) (B. pertussis [1]; 500 μg into the lung, all treated animals, all controls had fever and respiratory symptoms): no clinical symptoms
clinical symptoms and pathological alterations (B. pertussis [1]; 500 μg, at 2, 4, 7 and 10 days post infection): total absence
lesions in the histopathology of lung tissues (B. pertussis [1]; 500 μg, compared with challenged control piglets): either minor or no lesions
numbers of bacteria in homogenized lung tissues (B. pertussis [1]; 500 μg, days 2, 4, 7 and 10 post infection, p<0.005 (FIG. 10B)): significantly lower numbers of bacteria
numbers of isolated bacteria in BALs (B. pertussis [1]; 500 μg, days 2, 4 and 7 post infection, p<0.0001 (FIG. 10A)): significantly reduced
growth of B. bronchiseptica (B. bronchiseptica [2]; 40 μg/ml, 6 and 24 hours (FIG. 7B)): unaffected
susceptibility of B. bronchiseptica (B. bronchiseptica [2]; 160 μg/ml, up to 48 hours incubation): resistant
inhibitory activity (B. bronchiseptica [2]; FIG. 6C): Inhibitory activity was observed against all of these organisms except B. bronchiseptica
morphological effect on the bacterial cell surface (B. pertussis [3]): substantial morphological damage
inhibitory activity (Streptococcus suis): Inhibitory activity was observed
ultrastructural effect on bacteria (B. bronchiseptica [4]): did not result in major ultrastructural abnormalities or discrete holes
bactericidal activity in diluted SS medium (B. pertussis [5]; 10 μg/ml, 1/10 diluted SS medium in PBS, shorter period of time (FIG. 5B)): even stronger bactericidal activity
growth inhibition in comparison with control medium (B. pertussis [5]; 20 μg/ml, 6 hours, repeated assay (FIG. 5A)): at least 2 logs
inhibition of B. pertussis growth (B. pertussis [5]; 40 μg/ml, 18 hours of incubation (FIG. 4)): complete inhibition
neutralization of 5-8×10^6 CFU of B. pertussis (B. pertussis [5]; 80 μg/ml, 18 hours, repeated assay (FIG. 5A)): completely neutralized
effect of serum on antimicrobial activity (B. pertussis [5]; 10-50% rabbit serum added to the medium): did not inhibit
inhibitory effect against B. pertussis, dependence (B. pertussis [5]; 20, 40, 80 μg, 6, 18, 30 hr): dose and time dependent
antimicrobial activity against B. pertussis on addition of salt (B. pertussis [5]; addition of salt): significantly reduced
reduction in bacterial growth compared to untreated control wells (B. pertussis [5]; after 6 hours of incubation, 20-80 μg pBD-1): about 2 logs
reduction of bacterial growth (B. pertussis [5]; after 18 hours, depending on the dose used): more than 100,000 fold
reduction of the bacterial growth (B. pertussis [5]; after 30 hours): 1,000,000 fold
salt-dependent bactericidal activity (Listeria monocytogenes): has been demonstrated
salt-dependent bactericidal activity (Candida albicans): has been demonstrated
salt-dependent bactericidal activity (Salmonella typhimurium): has been demonstrated
salt-dependent bactericidal activity (Escherchia coli): has been demonstrated
inhibitory activity (E. coli): Inhibitory activity was observed
inhibitory activity [6]: Inhibitory activity was observed

human β-defensin-1: human β-defensin-1, cited from Baneman et al. as without effect on B. pertussis (DHYNCVSSGGQCLYSACPIFTKIQGTCYRGKAKCCK; ends and bridges not checked; cysteine pairing not given here; UniProt P60022 33-68, looked up)
effect on B. pertussis isolates (B. pertussis isolates): no effect
